Test results reported in the supplement of paper PMC10307832.

Columns and labels:
Experiment in all cases: relative viability (nuclei count vs DMSO), 5 days (fraction); higher = more cells survive
Sorafenib = compound: CNC(=O)c1cc(Oc2ccc(NC(=O)Nc3ccc(Cl)c(C(F)(F)F)c3)cc2)ccn1 [Sorafenib]
Procedure, shortened: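 Viability was read as treated-well nuclei divided by vehicle-well nuclei, using the median across plates. Lung cancer cell lines in 1536-well plates were kept overnight at 37 °C, pinned with five √10-spaced library-drug doses, and after 5 days were Hoechst-stained, imaged at 4× and counted in MetaXpress. Plates passed only with control CV below 25% and at least one doubling.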

Sorafenib + Phenformin = compound: CNC(=O)c1cc(Oc2ccc(NC(=O)Nc3ccc(Cl)c(C(F)(F)F)c3)cc2)ccn1 [Sorafenib] + N=C(N)NC(=N)NCCc1ccccc1 [Phenformin] (partner 250 µM)
Procedure, shortened: (§1)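 Cells from lung cancer lines were seeded into 1536-well plates and, one day later, dosed by pin tool. Treatments were either a single drug or a fixed dose of an anchor drug with five library-drug doses (not always all listed) in √10 steps. After 5 days, nuclei were stained in a one-step fixation (final 0.05% Triton X-100, 1% formaldehyde, 1 ug/ml Hoechst) and counted on 4× images, and relative viability is the treated-to-vehicle nuclei ratio, as the median of duplicate plates.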

Sorafenib + Foretinib = compound: CNC(=O)c1cc(Oc2ccc(NC(=O)Nc3ccc(Cl)c(C(F)(F)F)c3)cc2)ccn1 [Sorafenib] + COc1cc2c(Oc3ccc(NC(=O)C4(C(=O)Nc5ccc(F)cc5)CC4)cc3F)ccnc2cc1OCCCN1CCOCC1 [Foretinib] (partner 0.25 µM)
Procedure, shortened: as §1

Sorafenib + Tozasertib = compound: CNC(=O)c1cc(Oc2ccc(NC(=O)Nc3ccc(Cl)c(C(F)(F)F)c3)cc2)ccn1 [Sorafenib] + Cc1cc(Nc2cc(N3CCN(C)CC3)nc(Sc3ccc(NC(=O)C4CC4)cc3)n2)n[nH]1 [Tozasertib] (partner 0.1 µM)
Procedure, shortened: as §1

Sorafenib + Dasatinib = compound: CNC(=O)c1cc(Oc2ccc(NC(=O)Nc3ccc(Cl)c(C(F)(F)F)c3)cc2)ccn1 [Sorafenib] + Cc1nc(Nc2ncc(C(=O)Nc3c(C)cccc3Cl)s2)cc(N2CCN(CCO)CC2)n1 [Dasatinib] (partner 0.075 µM)
Procedure, shortened: as §1

Sorafenib + OSI-027 = compound: CNC(=O)c1cc(Oc2ccc(NC(=O)Nc3ccc(Cl)c(C(F)(F)F)c3)cc2)ccn1 [Sorafenib] + COc1cccc2cc(-c3nc([C@H]4CC[C@H](C(=O)O)CC4)n4ncnc(N)c34)[nH]c12 [OSI-027] (partner 0.5 µM)
Procedure, shortened: as §1

Sorafenib + Luminespib = compound: CNC(=O)c1cc(Oc2ccc(NC(=O)Nc3ccc(Cl)c(C(F)(F)F)c3)cc2)ccn1 [Sorafenib] + CCNC(=O)c1noc(-c2cc(C(C)C)c(O)cc2O)c1-c1ccc(CN2CCOCC2)cc1 [Luminespib] (partner 0.01 µM)
Procedure, shortened: as §1

Sorafenib + Pictilisib = compound: CNC(=O)c1cc(Oc2ccc(NC(=O)Nc3ccc(Cl)c(C(F)(F)F)c3)cc2)ccn1 [Sorafenib] + CS(=O)(=O)N1CCN(Cc2cc3nc(-c4cccc5[nH]ncc45)nc(N4CCOCC4)c3s2)CC1 [Pictilisib] (partner 1 µM)
Procedure, shortened: as §1

Sorafenib + Navitoclax = compound: CNC(=O)c1cc(Oc2ccc(NC(=O)Nc3ccc(Cl)c(C(F)(F)F)c3)cc2)ccn1 [Sorafenib] + CC1(C)CCC(c2ccc(Cl)cc2)=C(CN2CCN(c3ccc(C(=O)NS(=O)(=O)c4ccc(N[C@H](CCN5CCOCC5)CSc5ccccc5)c(S(=O)(=O)C(F)(F)F)c4)cc3)CC2)C1 [Navitoclax] (partner 0.5 µM)
Procedure, shortened: as §1

Sorafenib + Linsitinib = compound: CNC(=O)c1cc(Oc2ccc(NC(=O)Nc3ccc(Cl)c(C(F)(F)F)c3)cc2)ccn1 [Sorafenib] + C[C@]1(O)C[C@@H](c2nc(-c3ccc4ccc(-c5ccccc5)nc4c3)c3c(N)nccn32)C1 [Linsitinib] (partner 1 µM)
Procedure, shortened: as §1

Sorafenib + Bortezomib = compound: CNC(=O)c1cc(Oc2ccc(NC(=O)Nc3ccc(Cl)c(C(F)(F)F)c3)cc2)ccn1 [Sorafenib] + CC(C)C[C@H](NC(=O)[C@H](Cc1ccccc1)NC(=O)c1cnccn1)B(O)O [Bortezomib] (partner 0.002 µM)
Procedure, shortened: as §1

Sorafenib + Crizotinib = compound: CNC(=O)c1cc(Oc2ccc(NC(=O)Nc3ccc(Cl)c(C(F)(F)F)c3)cc2)ccn1 [Sorafenib] + C[C@@H](Oc1cc(-c2cnn(C3CCNCC3)c2)cnc1N)c1c(Cl)ccc(F)c1Cl [Crizotinib] (partner 1 µM)
Procedure, shortened: as §1

Sorafenib + Lapatinib = compound: CNC(=O)c1cc(Oc2ccc(NC(=O)Nc3ccc(Cl)c(C(F)(F)F)c3)cc2)ccn1 [Sorafenib] + CS(=O)(=O)CCNCc1ccc(-c2ccc3ncnc(Nc4ccc(OCc5cccc(F)c5)c(Cl)c4)c3c2)o1 [Lapatinib] (partner 2 µM)
Procedure, shortened: as §1

Sorafenib + Olaparib = compound: CNC(=O)c1cc(Oc2ccc(NC(=O)Nc3ccc(Cl)c(C(F)(F)F)c3)cc2)ccn1 [Sorafenib] + O=C(c1cc(Cc2n[nH]c(=O)c3ccccc23)ccc1F)N1CCN(C(=O)C2CC2)CC1 [Olaparib] (partner 8 µM)
Procedure, shortened: as §1

Sorafenib + Alpelisib = compound: CNC(=O)c1cc(Oc2ccc(NC(=O)Nc3ccc(Cl)c(C(F)(F)F)c3)cc2)ccn1 [Sorafenib] + Cc1nc(NC(=O)N2CCC[C@H]2C(N)=O)sc1-c1ccnc(C(C)(C)C(F)(F)F)c1 [Alpelisib] (partner 2 µM)
Procedure, shortened: as §1

NCI-H1623 showed a relative viability (Sorafenib; 0.08 µM) of 0.977, a relative viability (Sorafenib; 0.253 µM) of 0.898 and a relative viability (Sorafenib; 2.53 µM) of 1.06. It also gave a relative viability (Sorafenib; 8 µM) of 0.945, a relative viability (Sorafenib + Phenformin; first compound 0.08 µM) of 0.651 and a relative viability (Sorafenib + Phenformin; first compound 0.253 µM) of 0.562. The relative viability (Sorafenib + Phenformin; first compound 2.53 µM) was 0.66, the relative viability (Sorafenib + Phenformin; first compound 8 µM) was 0.521 and the relative viability (Sorafenib + Foretinib; first compound 0.08 µM) was 1.06. For the same cell line, the relative viability (Sorafenib + Foretinib; first compound 0.253 µM) was 0.852, the relative viability (Sorafenib + Foretinib; first compound 2.53 µM) was 0.975 and the relative viability (Sorafenib + Foretinib; first compound 8 µM) was 0.776. It also gave a relative viability (Sorafenib + Tozasertib; first compound 0.08 µM) of 0.431, a relative viability (Sorafenib + Tozasertib; first compound 0.253 µM) of 0.397 and a relative viability (Sorafenib + Tozasertib; first compound 2.53 µM) of 0.476. It also gave a relative viability (Sorafenib + Tozasertib; first compound 8 µM) of 0.411, a relative viability (Sorafenib + Dasatinib; first compound 0.08 µM) of 0.537 and a relative viability (Sorafenib + Dasatinib; first compound 0.253 µM) of 0.552. It also gave a relative viability (Sorafenib + Dasatinib; first compound 2.53 µM) of 0.604, a relative viability (Sorafenib + Dasatinib; first compound 8 µM) of 0.429 and a relative viability (Sorafenib + OSI-027; first compound 0.08 µM) of 0.414. It also gave a relative viability (Sorafenib + OSI-027; first compound 0.253 µM) of 0.411, a relative viability (Sorafenib + OSI-027; first compound 2.53 µM) of 0.5 and a relative viability (Sorafenib + OSI-027; first compound 8 µM) of 0.37. It also gave a relative viability (Sorafenib + Luminespib; first compound 0.08 µM) of 0.544, a relative viability (Sorafenib + Luminespib; first compound 0.253 µM) of 0.366 and a relative viability (Sorafenib + Luminespib; first compound 2.53 µM) of 0.611. It also gave a relative viability (Sorafenib + Luminespib; first compound 8 µM) of 0.342.

NCI-H1299 showed a relative viability (Sorafenib; 0.08 µM) of 1.02, a relative viability (Sorafenib; 0.253 µM) of 0.963 and a relative viability (Sorafenib; 2.53 µM) of 0.957. The relative viability (Sorafenib; 8 µM) was 0.922, the relative viability (Sorafenib + Pictilisib; first compound 0.08 µM) was 0.867 and the relative viability (Sorafenib + Pictilisib; first compound 0.253 µM) was 0.487. For the same cell line, the relative viability (Sorafenib + Pictilisib; first compound 2.53 µM) was 0.64, the relative viability (Sorafenib + Pictilisib; first compound 8 µM) was 0.253 and the relative viability (Sorafenib + Foretinib; first compound 0.08 µM) was 1.09. For the same cell line, the relative viability (Sorafenib + Foretinib; first compound 0.253 µM) was 1.08, the relative viability (Sorafenib + Foretinib; first compound 2.53 µM) was 1.02 and the relative viability (Sorafenib + Foretinib; first compound 8 µM) was 1.05. The relative viability (Sorafenib + Navitoclax; first compound 0.08 µM) was 1.07, the relative viability (Sorafenib + Navitoclax; first compound 0.253 µM) was 1.05 and the relative viability (Sorafenib + Navitoclax; first compound 2.53 µM) was 1.01. For the same cell line, the relative viability (Sorafenib + Navitoclax; first compound 8 µM) was 0.573, the relative viability (Sorafenib + Linsitinib; first compound 0.08 µM) was 0.947 and the relative viability (Sorafenib + Linsitinib; first compound 0.253 µM) was 0.88. The relative viability (Sorafenib + Linsitinib; first compound 2.53 µM) was 0.875, the relative viability (Sorafenib + Linsitinib; first compound 8 µM) was 0.946 and the relative viability (Sorafenib + Bortezomib; first compound 0.08 µM) was 1.02. It also gave a relative viability (Sorafenib + Bortezomib; first compound 0.253 µM) of 1.04, a relative viability (Sorafenib + Bortezomib; first compound 2.53 µM) of 1.01 and a relative viability (Sorafenib + Bortezomib; first compound 8 µM) of 0.952. The relative viability (Sorafenib + Crizotinib; first compound 0.08 µM) was 0.9, the relative viability (Sorafenib + Crizotinib; first compound 0.253 µM) was 0.859 and the relative viability (Sorafenib + Crizotinib; first compound 2.53 µM) was 0.907. The relative viability (Sorafenib + Crizotinib; first compound 8 µM) was 0.688, the relative viability (Sorafenib + Lapatinib; first compound 0.08 µM) was 0.933 and the relative viability (Sorafenib + Lapatinib; first compound 0.253 µM) was 0.86. It also gave a relative viability (Sorafenib + Lapatinib; first compound 2.53 µM) of 0.874, a relative viability (Sorafenib + Lapatinib; first compound 8 µM) of 0.802 and a relative viability (Sorafenib + Olaparib; first compound 0.08 µM) of 0.903. For the same cell line, the relative viability (Sorafenib + Olaparib; first compound 0.253 µM) was 0.894, the relative viability (Sorafenib + Olaparib; first compound 2.53 µM) was 0.882 and the relative viability (Sorafenib + Olaparib; first compound 8 µM) was 0.537. It also gave a relative viability (Sorafenib + Alpelisib; first compound 0.08 µM) of 1.06, a relative viability (Sorafenib + Alpelisib; first compound 0.253 µM) of 0.982 and a relative viability (Sorafenib + Alpelisib; first compound 2.53 µM) of 0.962. For the same cell line, the relative viability (Sorafenib + Alpelisib; first compound 8 µM) was 0.877.
